# From the supplement of paper PMC10307832
# Legend:
# Assay in all cases: relative viability (nuclei count vs DMSO), 5 days (fraction); higher = more cells survive
# LCLC-103H = system: LCLC-103H
# In short: (§1)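 Nuclei were stained with Hoechst during a one-step fixation (final 0.05% Triton X-100, 1% formaldehyde, 1 ug/ml Hoechst) carried out 5 days after dosing, then counted on 4× images. The cells, lung cancer lines in 1536-well plates, had been dosed by pin tool the day after seeding with one drug alone or a fixed anchor-drug dose plus five library-drug doses (not always all listed) in √10 steps. Relative viability is the nuclei count in treated wells divided by that in vehicle wells, and each value is the median of duplicate plates.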
# LXF-289 = system: LXF-289
# In short: as §1
# NCI-H1355 = system: NCI-H1355
# In short: as §1
# NCI-H1651 = system: NCI-H1651
# In short: as §1
# NCI-H1755 = system: NCI-H1755
# In short: as §1
# NCI-H1792 = system: NCI-H1792
# In short: as §1
# NCI-H1915 = system: NCI-H1915
# In short: as §1
# NCI-H2170 = system: NCI-H2170
# In short: as §1
# NCI-H2347 = system: NCI-H2347
# In short: as §1
# NCI-H3122 = system: NCI-H3122
# In short: as §1
# NCI-H322M = system: NCI-H322M
# In short: as §1
# NCI-H441 = system: NCI-H441
# In short: as §1
# NCI-H460 = system: NCI-H460
# In short: as §1
# NCI-H520 = system: NCI-H520
# In short: as §1
# NCI-H596 = system: NCI-H596
# In short: as §1
# NCI-H650 = system: NCI-H650
# In short: as §1
# NCI-H661 = system: NCI-H661
# In short: as §1
# NCI-H727 = system: NCI-H727
# In short: as §1
# PC-14 = system: PC-14
# In short: as §1
# RERF-LC-KJ = system: RERF-LC-KJ
# In short: as §1
# SK-MES-1 = system: SK-MES-1
# In short: as §1
# SW 900 = system: SW 900
# In short: as §1
structure (smiles),measurement,setting,value
NC(=O)Nc1cc(-c2cccc(F)c2)sc1C(=O)N[C@H]1CCCNC1 [AZD7762] + Nc1ncn([C@H]2C[C@H](O)[C@@H](CO)O2)c(=O)n1 [Decitabine] (partner 2 µM),relative viability,LCLC-103H; first compound 0.01 µM,0.766
same,relative viability,LCLC-103H; first compound 0.03162 µM,0.824
same,relative viability,LCLC-103H; first compound 0.1 µM,0.764
same,relative viability,LCLC-103H; first compound 0.3162 µM,0.725
same,relative viability,LCLC-103H; first compound 1 µM,0.829
same,relative viability,LXF-289; first compound 0.01 µM,0.322
same,relative viability,LXF-289; first compound 0.03162 µM,0.476
same,relative viability,LXF-289; first compound 0.1 µM,0.486
same,relative viability,LXF-289; first compound 0.3162 µM,0.619
same,relative viability,LXF-289; first compound 1 µM,0.55
same,relative viability,NCI-H1355; first compound 0.01 µM,0.352
same,relative viability,NCI-H1355; first compound 0.03162 µM,0.385
same,relative viability,NCI-H1355; first compound 0.1 µM,0.317
same,relative viability,NCI-H1355; first compound 0.3162 µM,0.407
same,relative viability,NCI-H1355; first compound 1 µM,0.475
same,relative viability,NCI-H1651; first compound 0.01 µM,0.612
same,relative viability,NCI-H1651; first compound 0.03162 µM,0.887
same,relative viability,NCI-H1651; first compound 0.1 µM,0.698
same,relative viability,NCI-H1651; first compound 0.3162 µM,0.692
same,relative viability,NCI-H1651; first compound 1 µM,0.315
same,relative viability,NCI-H1755; first compound 0.01 µM,0.76
same,relative viability,NCI-H1755; first compound 0.03162 µM,0.839
same,relative viability,NCI-H1755; first compound 0.1 µM,0.847
same,relative viability,NCI-H1755; first compound 0.3162 µM,0.922
same,relative viability,NCI-H1755; first compound 1 µM,0.703
same,relative viability,NCI-H1792; first compound 0.01 µM,0.507
same,relative viability,NCI-H1792; first compound 0.03162 µM,0.579
same,relative viability,NCI-H1792; first compound 0.1 µM,0.662
same,relative viability,NCI-H1792; first compound 0.3162 µM,0.582
same,relative viability,NCI-H1792; first compound 1 µM,0.68
same,relative viability,NCI-H1915; first compound 0.01 µM,0.276
same,relative viability,NCI-H1915; first compound 0.03162 µM,0.297
same,relative viability,NCI-H1915; first compound 0.1 µM,0.294
same,relative viability,NCI-H1915; first compound 0.3162 µM,0.337
same,relative viability,NCI-H1915; first compound 1 µM,0.326
same,relative viability,NCI-H2170; first compound 0.01 µM,0.465
same,relative viability,NCI-H2170; first compound 0.03162 µM,0.544
same,relative viability,NCI-H2170; first compound 0.1 µM,0.497
same,relative viability,NCI-H2170; first compound 0.3162 µM,0.581
same,relative viability,NCI-H2170; first compound 1 µM,0.436
same,relative viability,NCI-H2347; first compound 0.01 µM,0.558
same,relative viability,NCI-H2347; first compound 0.03162 µM,0.656
same,relative viability,NCI-H2347; first compound 0.1 µM,0.725
same,relative viability,NCI-H2347; first compound 0.3162 µM,0.79
same,relative viability,NCI-H2347; first compound 1 µM,0.752
same,relative viability,NCI-H3122; first compound 0.01 µM,0.451
same,relative viability,NCI-H3122; first compound 0.03162 µM,0.427
same,relative viability,NCI-H3122; first compound 0.1 µM,0.442
same,relative viability,NCI-H3122; first compound 0.3162 µM,0.415
same,relative viability,NCI-H3122; first compound 1 µM,0.434
same,relative viability,NCI-H322M; first compound 0.01 µM,0.813
same,relative viability,NCI-H322M; first compound 0.03162 µM,0.789
same,relative viability,NCI-H322M; first compound 0.1 µM,0.801
same,relative viability,NCI-H322M; first compound 0.3162 µM,0.783
same,relative viability,NCI-H322M; first compound 1 µM,0.457
same,relative viability,NCI-H441; first compound 0.01 µM,0.274
same,relative viability,NCI-H441; first compound 0.03162 µM,0.29
same,relative viability,NCI-H441; first compound 0.1 µM,0.328
same,relative viability,NCI-H441; first compound 0.3162 µM,0.344
same,relative viability,NCI-H441; first compound 1 µM,0.27
same,relative viability,NCI-H460; first compound 0.01 µM,0.657
same,relative viability,NCI-H460; first compound 0.03162 µM,0.488
same,relative viability,NCI-H460; first compound 0.1 µM,0.451
same,relative viability,NCI-H460; first compound 0.3162 µM,0.26
same,relative viability,NCI-H460; first compound 1 µM,0.0798
same,relative viability,NCI-H520; first compound 0.01 µM,0.521
same,relative viability,NCI-H520; first compound 0.03162 µM,0.522
same,relative viability,NCI-H520; first compound 0.1 µM,0.52
same,relative viability,NCI-H520; first compound 0.3162 µM,0.475
same,relative viability,NCI-H520; first compound 1 µM,0.246
same,relative viability,NCI-H596; first compound 0.01 µM,0.978
same,relative viability,NCI-H596; first compound 0.03162 µM,1.02
same,relative viability,NCI-H596; first compound 0.1 µM,1.01
same,relative viability,NCI-H596; first compound 0.3162 µM,1.1
same,relative viability,NCI-H596; first compound 1 µM,1.03
same,relative viability,NCI-H650; first compound 0.01 µM,0.359
same,relative viability,NCI-H650; first compound 0.03162 µM,0.404
same,relative viability,NCI-H650; first compound 0.1 µM,0.437
same,relative viability,NCI-H650; first compound 0.3162 µM,0.493
same,relative viability,NCI-H650; first compound 1 µM,0.493
same,relative viability,NCI-H661; first compound 0.01 µM,0.689
same,relative viability,NCI-H661; first compound 0.03162 µM,0.62
same,relative viability,NCI-H661; first compound 0.1 µM,0.642
same,relative viability,NCI-H661; first compound 0.3162 µM,0.609
same,relative viability,NCI-H661; first compound 1 µM,0.356
same,relative viability,NCI-H727; first compound 0.01 µM,1.01
same,relative viability,NCI-H727; first compound 0.03162 µM,1.11
same,relative viability,NCI-H727; first compound 0.1 µM,0.895
same,relative viability,NCI-H727; first compound 0.3162 µM,0.959
same,relative viability,NCI-H727; first compound 1 µM,0.536
same,relative viability,PC-14; first compound 0.01 µM,0.234
same,relative viability,PC-14; first compound 0.03162 µM,0.225
same,relative viability,PC-14; first compound 0.1 µM,0.166
same,relative viability,PC-14; first compound 0.3162 µM,0.137
same,relative viability,PC-14; first compound 1 µM,0.0898
same,relative viability,RERF-LC-KJ; first compound 0.01 µM,0.743
same,relative viability,RERF-LC-KJ; first compound 0.03162 µM,0.793
same,relative viability,RERF-LC-KJ; first compound 0.1 µM,0.962
same,relative viability,RERF-LC-KJ; first compound 0.3162 µM,0.845
same,relative viability,RERF-LC-KJ; first compound 1 µM,0.611
same,relative viability,SK-MES-1; first compound 0.01 µM,0.347
same,relative viability,SK-MES-1; first compound 0.03162 µM,0.394
same,relative viability,SK-MES-1; first compound 0.1 µM,0.342
same,relative viability,SK-MES-1; first compound 0.3162 µM,0.289
same,relative viability,SK-MES-1; first compound 1 µM,0.163
same,relative viability,SW 900; first compound 0.01 µM,0.402
same,relative viability,SW 900; first compound 0.03162 µM,0.477
same,relative viability,SW 900; first compound 0.1 µM,0.551
same,relative viability,SW 900; first compound 0.3162 µM,0.481
same,relative viability,SW 900; first compound 1 µM,0.451
